Measured values taken from US6077841A, “5-heterocyclyl pyrazolo[4,3-d]pyrimidin-7-ones for the treatment of male erectile dysfunction” (Janssen Pharmaceutica, N.V., priority 1999, dated 2000).

Tested on: erectile dysfunction
Experiment: not given
Settings: ED of psychogenic or organic etiology; share of men; cited from earlier work

| SMILES | improved sexual function in men who suffer from ED |
| --- | --- |
| CCCc1nn(C)c2c(=O)[nH]c(-c3cc(S(=O)(=O)N4CCN(C)CC4)ccc3OCC)nc12 [sildenafil, 5-[2-ethoxy-5-(4-methylpiperazin-1-ylsulphonyl)phenyl]-1-methyl-3-n-propyl-6,7-dihydro-1H-pyrazolo[4,3-d]pyrimidin-7-one] | about 70% |

Same assay, conditions: patients who had undergone a radical prostatectomy; versus 15% on placebo; cited from earlier work

| SMILES | patients with improved erections |
| --- | --- |
| CCCc1nn(C)c2c(=O)[nH]c(-c3cc(S(=O)(=O)N4CCN(C)CC4)ccc3OCC)nc12 [sildenafil, 5-[2-ethoxy-5-(4-methylpiperazin-1-ylsulphonyl)phenyl]-1-methyl-3-n-propyl-6,7-dihydro-1H-pyrazolo[4,3-d]pyrimidin-7-one] | 43% |

Same assay, conditions: use of sildenafil; cited from earlier work

| SMILES | undesirable side effects |
| --- | --- |
| CCCc1nn(C)c2c(=O)[nH]c(-c3cc(S(=O)(=O)N4CCN(C)CC4)ccc3OCC)nc12 [sildenafil, 5-[2-ethoxy-5-(4-methylpiperazin-1-ylsulphonyl)phenyl]-1-methyl-3-n-propyl-6,7-dihydro-1H-pyrazolo[4,3-d]pyrimidin-7-one] | headache, flushing and disrupted color vision |

Tested on: erectile dysfunction
Experiment: not given
Settings: direct intracavernosal or intraurethral injection; cited from earlier work

| SMILES | side effects |
| --- | --- |
| COc1ccc(Cc2nccc3cc(OC)c(OC)cc23)cc1OC [papaverine] | priapism, fibrosis, penile pain and hematoma at the injection site |

Same assay, conditions: in vivo; cited from earlier work

| SMILES | side effects |
| --- | --- |
| CCCCC[C@H](O)/C=C/[C@H]1[C@H](O)CC(=O)[C@@H]1CCCCCCC(=O)O [alprostadil] | priapism, fibrosis, penile pain and hematoma at the injection site |
| Cc1ccc(N(CC2=NCCN2)c2cccc(O)c2)cc1 [phentolamine] | priapism, fibrosis, penile pain and hematoma at the injection site |

Target: PDE V (Oryctolagus cuniculus, UniProt G1SX67)
Experiment: Measurement of Inhibition of PDE V (cyclic nucleotide phosphodiesterase assay)
Type: biochemical, rabbit
Settings: 1 μM cGMP or cAMP, pH 7.4, 30° C., 30 minutes, 10% DMSO; read-out: Activity IC50 (PDEV inhibitory activity)

| SMILES | IC50 |
| --- | --- |
| CCCc1nn(C)c2c(=O)[nH]c(-c3cc4cccc(OCC)c4o3)nc12 [Compound 7, 5-(7-Ethoxybenzofuran-2-yl)-1-methyl-3-n-propyl-6,7-dihydro-1H-pyrazolo-[4,3-d]pyrimidin-7-one] | 910 nM |
| CCCc1nn(C)c2c(=O)[nH]c(-c3sc(S(=O)(=O)N4CCN(C)CC4)cc3OCC)nc12 [Compound 5, 5-[3-Ethoxy-5-(4-methylpiperazinylsulfonyl)-thiophene-2-yl]-1-methyl-3-n-propyl-6,7-dihydro-1H-pyrazolo-[4,3-d]pyrimidin-7-one] | 8000 nM |
| CCCc1nn(C)c2c(=O)[nH]c(-c3cc4c(S(=O)(=O)N5CCN(C)CC5)ccc(OCC)c4o3)nc12 [Compound 8] | 5400 nM |
| CCCc1nn(C)c2c(=O)[nH]c(-c3sc(S(=O)(=O)N4CCN(C(N)=O)CC4)cc3OCC)nc12 [Compound 20] | 950 nM |
| CCCc1nn(C)c2c(=O)[nH]c(-c3cccn3C)nc12 [Compound 10] | 3500 nM |
| CCCc1nn(C)c2c(=O)[nH]c(-c3cccs3)nc12 [Compound 28] | 1600 nM |
| CCCc1nn(C)c2c(=O)[nH]c(-c3sc(S(=O)(=O)N4CCN(c5ncccn5)CC4)cc3OCC)nc12 [Compound 12] | 1200 nM |
| CCCc1nn(C)c2c(=O)[nH]c(-c3sccc3OCC)nc12 [Compound 4, 5-(3-Ethoxythiophene-2-yl)-1-methyl-3-n-propyl-6,7-dihydro-1H-pyrazolo-[4,3-d]pyrimidin-7-one] | 470 nM |
| CCCc1nn(C)c2c(=O)[nH]c(-c3sc(S(=O)(=O)N4CCC(N(C)C)CC4)cc3OCC)nc12 [Compound 29] | 8300 nM |
| CCCc1nn(C)c2c(=O)[nH]c(-c3sc(S(=O)(=O)N(C)C)cc3OCC)nc12 [Compound 22] | 1400 nM |
| CCCc1nn(C)c2c(=O)[nH]c(-c3sc(S(=O)(=O)N(C)CCN(C)C)cc3OCC)nc12 [Compound 26] | 4900 nM |

The next lines start with the values.

| IC50 | SMILES |
| --- | --- |
| 10000 nM | CCCc1nn(C)c2c(=O)[nH]c(-c3sc(S(=O)(=O)N4CCN(C)CC4)cc3O)nc12 [Compound 6, 5-[3-hydroxy-5-(4-methylpiperazinylsulfonyl)-thiophene-2-yl]-1-methyl-3-n-propyl-6,7-dihydro-1H-pyrazolo-[4,3-d]pyrimidin-7-one] |
| 2300 nM | CCCc1nn(C)c2c(=O)[nH]c(-c3sc(S(=O)(=O)N4CCN(CC)CC4)cc3OCC)nc12 [Compound 24] |

Same assay, conditions: at 10 μM; read-out: Activity Inhibition % at (conc. μM)

| SMILES | inhibition at 10 µM |
| --- | --- |
| CCCc1nn(C)c2c(=O)[nH]c(-c3sc(S(=O)(=O)N(C)C)cc3O)nc12 [Compound 23] | 30% |
| CCCc1nn(C)c2c(=O)[nH]c(-c3sc(S(=O)(=O)N4CCN(C5CCCCC5)CC4)cc3OCC)nc12 [Compound 30] | 33% |
| CCCc1nn(C)c2c(=O)[nH]c(-c3cc(S(=O)(=O)N4CCN(c5ncccn5)CC4)cn3C)nc12 [Compound 32] | 31% |
| CCCc1nn(C)c2c(=O)[nH]c(-c3cc(S(=O)(=O)N4CCN(C)CC4)cn3C)nc12 [Compound 11] | 31% |
| CCCc1nn(C)c2c(=O)[nH]c(-c3sc(S(=O)(=O)N(C)CCN(C)C)cc3O)nc12 [Compound 27] | 32% |
| CCCc1nn(C)c2c(=O)[nH]c(-c3sc(S(=O)(=O)N4CCN(C5CCCCC5)CC4)cc3O)nc12 [Compound 31] | 31% |

Second part, the compound after the results:

| inhibition at 10 µM | SMILES |
| --- | --- |
| 28% | CCCc1nn(C)c2c(=O)[nH]c(-c3sc(S(=O)(=O)N4CCN(c5ccccc5)CC4)cc3O)nc12 [Compound 17] |
| 44% | CCCc1nn(C)c2c(=O)[nH]c(-c3sc(S(=O)(=O)N4CCN(C/C=C/c5ccccc5)CC4)cc3OCC)nc12 [Compound 18] |
| 30% | CCCc1nn(C)c2c(=O)[nH]c(-c3sc(S(=O)(=O)N4CCN(C(N)=O)CC4)cc3O)nc12 [Compound 21] |
| 26% | CCCc1nn(C)c2c(=O)[nH]c(-c3sc(S(=O)(=O)N4CCN(CC)CC4)cc3O)nc12 [Compound 25] |
| 19% | CCCc1nn(C)c2c(=O)[nH]c(-c3sc(S(=O)(=O)N4CCN(c5ccccc5)CC4)cc3OCC)nc12 [Compound 16] |
| 27% | CCCc1nn(C)c2c(=O)[nH]c(-c3sc(S(=O)(=O)N4CCN(C/C=C/c5ccccc5)CC4)cc3O)nc12 [Compound 19] |

Same assay, conditions: at 20 μM; read-out: Activity Inhibition % at (conc. μM)

| SMILES | inhibition at 20 µM |
| --- | --- |
| CCCc1nn(C)c2c(=O)[nH]c(-c3cc4c(S(=O)(=O)N5CCN(C)CC5)cc(S(=O)(=O)N5CCN(C)CC5)c(OCC)c4o3)nc12 [Compound 9] | 6% |
| CCCc1nn(C)c2c(=O)[nH]c(-c3sc(S(=O)(=O)N4CCN(Cc5ccccc5)CC4)cc3OCC)nc12 [Compound 13] | 46% |
| CCCc1nn(C)c2c(=O)[nH]c(-c3sc(S(=O)(=O)N4CCN(c5ncccn5)CC4)cc3O)nc12 [Compound 15] | 13% |
| CCCc1nn(C)c2c(=O)[nH]c(-c3sc(S(=O)(=O)N4CCN(Cc5ccccc5)CC4)cc3O)nc12 [Compound 14] | 18% |
